Marks after values point to notes of the source that are not given here.
How the values were obtained:
Format in all cases: in vivo
Balb/c mice [1] = test: Cytokine producing cells in peripheral blood (flow cytometry) after LNIT; settings: for IL-5/IFN-γ (CD4) / IL-5/IFN-γ (CD8): peripheral blood
Experimental: (§1) Male Balb/c mice were obtained from the National Laboratory Breeding Research Center in Taiwan and were raised in a specific pathogen-free environment. The mice used were between six and eight weeks of age. Groups of six mice were caged separately according to their treatment.
(§2) Mice were immunized by way of an intraperitoneal (IP) injection of 1 μg/0.1 mL rDp2 emulsified in 4.0 mg/0.062mL aluminum hydroxide Al(OH)3 (Whitehall Lab Ltd. Punchbowl, NSW, Australia) on day 0 and day 7. Following immunization, local nasal immunotherapy (LNIT) was conducted daily from day 14 to day 35 with Dp2 28-40, Dp2 28-40A, FIP alone or FIP mixed with either Dp2 28-40 or Dp2 28-40A (FIP, 50 μg/mouse/day; Dp2 peptide, 1 μg/20 μL) in PBS with 10% glycerol. Normal saline (NS) and irrelevant allergen Bt were used as a negative control. […] On day 28, mice were lightly anesthetized with an IP injection of 60 mg/kg of sodium pentobarbital (Sigma Chemical Co., St Louis, Mo., U.S.A.) and inoculated intratracheally (IT) with 1 μg/50 μL of rDp 2 on day 28 and day 35. Two days subsequent to the second IT inoculation, the mice were sacrificed following the assessment of their pulmonary function (FIG. 1).
Two-color staining methods were used to analyze IFN-γ and IL-5 expression amongst CD4 cells. Leukocytes derived from peripheral blood (PBL) were stimulated with PMA (50 ng/mL), ionomycin (2 μM) and GolgiStop (Cytofix/Cytoperm Plus Pharmingen San Diego, Calif., U.S.A.) for five hours and then washed twice using PBS. The cells were stained with CD4-PerCP, CD8-FITC or IgG1-FITC (PharMingen) at room temperature (RT) for 30 minutes and then washed. Cells were fixed with cytofix/cytoperm at RT for 30 minutes and then stained with anti-cytokine antibody and IgG2a-PE (PharMingen) at RT for 30 minutes and subsequently washed. Both IgG1-FITC and IgG2a-PE were purchased from the same manufacturer as the anticytokine antibodies and the negative controls. Cells were resuspended in 0.5 mL PBS containing 0.1% w/v sodium azide. Mean fluorescence was measured by means of Becton Diskinson flow cytometry (Becton Diskinson, Calif., U.S.A.). A total of 2,000 cells was analyzed for each sample.

Balb/c mice [2] = test: IL-5 and IFN-γ levels in sera and BALF (ELISA) after LNIT; settings: Example 2, mean ± SEM, n = 6
Experimental: as §1, §2
IFN-γ and IL-5 were measured using commercially-available ELISA kits, using a specific mouse monoclonal Ab that recognized different epitopes of the cytokine molecules. The lowest detector range was 10 pg/mL. Given that the BALF was considered to be at too diluted a concentration, IL-4 was not measured.

Balb/c mice [3] = test: Leukocyte subpopulations in BALF of rDp2-sensitized mice after local nasal immunotherapy (LNIT); settings: BALF
Experimental: Male Balb/c mice were obtained from the National Laboratory Breeding Research Center in Taiwan and were raised in a specific pathogen-free environment. The mice used were between six and eight weeks of age. Groups of six mice were caged separately according to their treatment. Recombinant Dermatophoides pteronyssinus group 2 (rDp2) was prepared as previously described(Tsai J J, et al. Int Arch Allergy Immunol 2000;121:205-10). Dp2 28-40 and Dp2 28-40A were obtained from Dr. Jonathan Lamb (Respiratory Medicine Unit, Edinburgh University, Medical School, Edinburgh, UK) (Verhoef A, and Lamb J R. J Immunol 2000;164:6034-6040). FIP was obtained from Dr. Ko Jiunn-Liang (Institute of Toxicology, Chung Shan Medical University, Taichung, R O C) (J L Ko, et al. Eur. J. Biochem. 1995;228:244-249).
as §2
Subsequent to pulmonary function measurement having been completed, bronchoalveolar lavage (BAL) was performed using the following procedure. BAL fluids were collected with lmL sterile endotoxin-free saline washes of each lung via the trachea for each mouse. BAL cells were washed once with PBS by centrifugation at 200×g at 4° C. Subsequent to washing, the cells were resuspended in RPMI-1640 (Sigma Chemical Co.). The total leukocyte count in BAL fluids was determined using a hemocytometer. The BAL fluids were aspirated and stored at −70° C. until needed for assay purposes. Subsequent to total leukocyte counting, a cytospin preparation of 100 μL BAL fluids (2×10^5 cells/mL) was conducted, the cells being cytocentrifuged directly onto glass slides at 350 r.p.m. for five minutes using a Cytospin 3 cytocentrifuge (Shandon Scientific Limited, Astmoor, Runcorn, UK), and then stained with Liu stain (Tonyar Diagnostic Inc, Taipei & Hien, Taiwan). The differential counts were performed for a total of 200 leukocyte cells.

[4] = Example 1, percentage of positive stained cells in the PBMC of six mice
[5] = Example 2, percentage of total leukocytes in the peripheral blood of six mice
[6] = Example 1, LNIT day 14-35, rDp2 IT challenge, mean ± SEM of six animals
[7] = Example 2 (FIP study), mean ± SEN of six mice

Structure (SMILES): C[C@@H]1C[C@H]2[C@@H]3CCC4=CC(=O)C=C[C@]4(C)[C@@]3(F)[C@@H](O)C[C@]2(C)[C@@]1(O)C(=O)CO [DEX, Dexamethasone, reference compound]
- CD4^+ (Balb/c mice [1]; [4]): 45.6 percentage
- CD8^+ (Balb/c mice [1]; [4]): 7.0 percentage
- IFN-γ^+/CD4^+ (Balb/c mice [1]; [4]): 7.9 percentage
- IFN-γ^+/CD8^+ (Balb/c mice [1]; [4]): 7.9 percentage
- IL-5^+/CD4^+ (Balb/c mice [1]; [4]): 9.2 percentage
- IL-5^+/CD8^+ (Balb/c mice [1]; [4]): 8.2 percentage
- IL-5/IFN-γ (CD4) (Balb/c mice [1]; Example 1, ratio of IL-5 to IFN-γ producing CD4 cells): 1.2
- IL-5/IFN-γ (CD8) (Balb/c mice [1]; Example 1, ratio of IL-5 to IFN-γ producing CD8 cells): 1.0
- CD4 (Balb/c mice [1]; [5]): 51.2 percentage
- CD8 (Balb/c mice [1]; [5]): 7.9 percentage
- IFN-γ^+/CD4^+ (Balb/c mice [1]; [5]): 17.7 percentage
- IFN-γ^+/CD8^+ (Balb/c mice [1]; [5]): 14.1 percentage
- IL-5^+/CD4^+ (Balb/c mice [1]; [5]): 15.8 percentage
- IL-5^+/CD8^+ (Balb/c mice [1]; [5]): 14.1 percentage
- IL-5/IFN-γ (CD4) (Balb/c mice [1]; Example 2, ratio, CD4 cells): 0.9
- IL-5/IFN-γ (CD8) (Balb/c mice [1]; Example 2, ratio, CD8 cells): 1.0
- IFN-γ (Balb/c mice [2]; BALF): 9.9 ± 0.6 pg/mL
- IL-5 (Balb/c mice [2]; BALF): 19.2 ± 1.2 pg/mL
- IFN-γ (Balb/c mice [2]; Sera): 46.2 ± 3.4 pg/mL
- IL-5 (Balb/c mice [2]; Sera): 138.0 ± 16.6 pg/mL
- Eosinophil (Balb/c mice [3]; [6]): 3.2 ± 0.4* 10^4 cells/mL
- Lymphocyte (Balb/c mice [3]; [6]): 9.4 ± 1.5* 10^4 cells/mL
- Macrophage (Balb/c mice [3]; [6]): 29.2 ± 4.4* 10^4 cells/mL
- Neutrophil (Balb/c mice [3]; [6]): 6.6 ± 1.0* 10^4 cells/mL
- Total cell (Balb/c mice [3]; [6]): 46.4 ± 2.2* 10^4 cells/mL
- Eosinophil (Balb/c mice [3]; [7]): 3.8 ± 0.5 ×10^4/mL
- Lymphocyte (Balb/c mice [3]; [7]): 15.3 ± 0.6 ×10^4/mL
- Macrophage (Balb/c mice [3]; [7]): 28.3 ± 1.7 ×10^4/mL
- Neutrophil (Balb/c mice [3]; [7]): 8.0 ± 0.8 ×10^4/mL
